Data as given in US7718613B2, “Armed peptides” (priority 2001, dated 2010).
The star is where a group is joined. Myristoyl = CCCCCCCCCCCCCC(=O)*

Columns and labels:
[1] = Cytolytic activity of pH-responsive peptides on calcein liposomes at different pH; conditions: liposomes 4 μM lipid; 14 nM peptide 2, 20 nM peptide 7, 45 nM peptide 9; FIG. 4
Experimental: Liposomes encapsulating calcein dye were prepared by an extrusion method (Biochim. Biophys. Acta, 812 (1985) 55). Phophatidylcholine (50 mg) and cholesterol (13.08 mg) which had been dissolved in 4 ml of 50% v/v chloroform methanol solution were evaporated to form a lipid film in a round bottom flask. If it is essential to follow the fate of liposomes a lipohilic-dye such as DiI (50 μg) could be incorporated into the lipid film prior to hydration. The film was then hydrated with 4 ml of 120 mM calcein solution prepared in 10 mM sodium phosphate 20 mM Sodium chloride buffer pH 7.4. Liposomes were formed by 10 extrusion cycles through 0.2 micron or 0.1 um polycarbonate filters using the Liposofast 100 (Avestin) extruder device. The non encapsulated dye was removed by gel filtration on a PD-10 column using iso-osmotic buffer. The total lipid concentration of the liposomes was measured by the Stewart assay and adjusted to 3 mg per ml.
The cytolytic activity of pH-responsive peptides was followed by adding 2 or 3 μl of liposomes to a 2 ml assay volume and continually recording fluorescence. Buffers were made of 10 mM Na phosphate, 140 mM NaCl, 1 mM EDTA, 5 mM HEPES at several different pH values. […] In the experiments 2 ml of 10 mM Na phosphate, 140 mM NaCl, 1 mM EDTA, 5 mM HEPES buffer (at pH values indicated on the figure) containing liposomes (4 μM lipid) and (A) 14 nM peptide 2, (B) 20 nM peptide 7 (C) 45 nM peptide 9. In all cases peptides were added indicated by sharp dip in fluorescence were used. The pH values are as indicated for each trace. […] In general, it is well documented that many proteins including receptors, enzymes and antibodies has pH optimum usually closer to physiological value. On either side of the pH optimum the binding activity is reduced. However in general as activity profile is typically bell shape most proteins would tolerate at least a pH unit shift from optimum. Obviously the closer the results are to pH 7.4 the higher chances their are for efficient binding with target proteins or receptors.

[2] = Liposome-peptide integral complex: pH-triggered calcein release and stability
Source text: A fatty acid incorporated on the N-terminal of peptide anchors the sequence with liposomes to form integral complex which can then be used as single stable reagent that can be triggered to release the contents-of the liposomoes when the pH is ideal (i.e physiological 7.4) or acidic (e.g 6.2). In the first instance we prepared the liposome-peptide complex at a predetermined ratio of lipid-to peptide (30:1) in pH 8 buffer using peptide 10. […] The complex between liposomes and peptide was formed by adding peptide to […] of 10 mM NaP containing 140 mM NaCl, 1 mM EDTA, 5 mM Hepes pH 8 buffer, containing 100 μl of calcein encapsulating liposomes. The mixture was incubated for 20 mins to form the complex prior to use. In order to ascertain that the lysis is occurring due to the formation of complex and not as the action of the peptide per se it was essential to purify the liposome-peptide complex. The peptide to lipid ratio in this complex is 1:30. The complex was applied to a Sepharose CL-6B column. Fractions corresponding to liposomes were collected as clearly visible to the eye. Aliquots of these fractions were then tested for lytic activity at acidic and physiological pH values. The key aim was to establish that the peptide is liposome associated and would thus be eluted with liposome fraction in the void volume. We used 100 μl complex (a column purified fraction) and followed the release of Calcein at two different pH values.
FIG. 8A. […] Upper curve pH 5.8. Lower curve pH 7.4.
2 ml buffer (10 mM Na phosphate, 140 mM NaCl, 1 mM EDTA, 5 mM HEPES)+50 μl purified complex. Lipsomes used were 50 nm extruded. Curves top to bottom are pH 6.2, 6.4, 6.7, 7.0, 7.4
Complex 20 μl liposomes+60 μl pH 8 buffer+20 μl peptide (0.1 mg/ml) prepared and used within 2 minutes. 10 μl was added to each of the cuvettes containing 2 ml buffers. Top curve pH 6.2 (triton was added towards the end indicated by sharp dip in fluorescence to check full lysis), the lower curve is at pH 7.4. Samples measured simultaneously.
5 μL of complex in 2 ml of buffer tested 20 minutes after preparation. Upper curve pH 6.2, Lower curve pH 7.4.
5 μL of complex in 2 ml of buffer tested 5 hrs after preparation. Upper curve pH 6.2 and lower curve pH 7.4.
5 μL of complex in 2 ml of buffer tested 24 hrs after preparation curve pH 6.2, Lower curve pH 7.4.

KHT tumour = assay: Ex vivo release of calcein in tumour slices after i.v. peptide liposome complex; set-up: species or system C3H mice; conditions: 200 μl complex i.v., tumours excised 3 hrs post inoculum, buffer pH 8 changed to pH 5.8; FIG. 11
Experimental: Liposomes encapsulating Calcein (120 mM) and with label DiI (the dye to lipid ratio was around 100 μg dye: 100 mg PC) were used. C3H syngenic mice 8-10 weeks old weighing 20-25 g were used. Subcutaneous tumour was implanted using KHT cells (5×10^6 cells/animal) on the dorsal side after shaving the mice. Typically 200 μl of peptide liposome complex (100 μl of dual dye liposomes+100 μl of peptide 0.1 mg/ml) were administered intravenously per mice and tumours excised 3 hrs post inoculum. The tumour was removed aseptically and kept in PBS pH 8.0 buffer and thin sections (160 μm-200 μm) were cut on the slicing machine, and examined under a fluorescence microscope. The pH of the buffer was modulated by adding 400 μl of NaP buffer pH 5.8 while simultaneously removing 400 μl of pH 8 buffer. Changes in fluorescence intensity were recorded. The state of liposome peptide complex is then determined, whether intact or lysed by measuring fluorescence in tissue slices before-and after incubation in acidic buffer. The increase in fluorescence in the acidic buffer indicates the quantity of liposomes that were still intact and able to respond at the time of sacrifice.

Myr-WEAALAEALAEALAEHLARALAEALEALAA-Amide (Myristoyl-WEAALAEALAEALAEHLARALAEALEALAA-NH2; SMILES CCCCCCCCCCCCCC(=O)N[C@@H](Cc1c[nH]c2ccccc12)C(=O)N[C@@H](CCC(=O)O)C(=O)N[C@@H](C)C(=O)N[C@@H](C)C(=O)N[C@@H](CC(C)C)C(=O)N[C@@H](C)C(=O)N[C@@H](CCC(=O)O)C(=O)N[C@@H](C)C(=O)N[C@@H](CC(C)C)C(=O)N[C@@H](C)C(=O)N[C@@H](CCC(=O)O)C(=O)N[C@@H](C)C(=O)N[C@@H](CC(C)C)C(=O)N[C@@H](C)C(=O)N[C@@H](CCC(=O)O)C(=O)N[C@@H](Cc1c[nH]cn1)C(=O)N[C@@H](CC(C)C)C(=O)N[C@@H](C)C(=O)N[C@@H](CCCNC(=N)N)C(=O)N[C@@H](C)C(=O)N[C@@H](CC(C)C)C(=O)N[C@@H](C)C(=O)N[C@@H](CCC(=O)O)C(=O)N[C@@H](C)C(=O)N[C@@H](CC(C)C)C(=O)N[C@@H](CCC(=O)O)C(=O)N[C@@H](C)C(=O)N[C@@H](CC(C)C)C(=O)N[C@@H](C)C(=O)N[C@@H](C)C(N)=O) [peptide 9]
pH of triggering (pH profile of calcein release from liposomes) [1]: ~7 pH
stability of the complex ([2]; calcein/DiI liposomes, tested 20 minutes, 5 hrs and 24 hrs after preparation, pH 6.2 vs 7.4, FIGS. 8D, E, F): retention of the pH triggering of properties
triggering properties of complex after purification ([2]; peptide to lipid ratio 1:300, pH 6.2 to 7.4, FIG. 8B): triggering properties are retained
release of calcein in tumour slices on acidification (KHT tumour): able to trigger release of calcein
